{
  "source": "patent US20260007681A1",
  "about": "“INDOLE DERIVATIVES AS ESTROGEN RECEPTOR DEGRADERS” (REGENTS OF THE UNIVERSITY OF MICHIGAN, priority 2022, published 2026)",
  "data": [
    {"target": "ER (Homo sapiens (Human), UniProt P03372)", "sequence (P03372 whole entry)": "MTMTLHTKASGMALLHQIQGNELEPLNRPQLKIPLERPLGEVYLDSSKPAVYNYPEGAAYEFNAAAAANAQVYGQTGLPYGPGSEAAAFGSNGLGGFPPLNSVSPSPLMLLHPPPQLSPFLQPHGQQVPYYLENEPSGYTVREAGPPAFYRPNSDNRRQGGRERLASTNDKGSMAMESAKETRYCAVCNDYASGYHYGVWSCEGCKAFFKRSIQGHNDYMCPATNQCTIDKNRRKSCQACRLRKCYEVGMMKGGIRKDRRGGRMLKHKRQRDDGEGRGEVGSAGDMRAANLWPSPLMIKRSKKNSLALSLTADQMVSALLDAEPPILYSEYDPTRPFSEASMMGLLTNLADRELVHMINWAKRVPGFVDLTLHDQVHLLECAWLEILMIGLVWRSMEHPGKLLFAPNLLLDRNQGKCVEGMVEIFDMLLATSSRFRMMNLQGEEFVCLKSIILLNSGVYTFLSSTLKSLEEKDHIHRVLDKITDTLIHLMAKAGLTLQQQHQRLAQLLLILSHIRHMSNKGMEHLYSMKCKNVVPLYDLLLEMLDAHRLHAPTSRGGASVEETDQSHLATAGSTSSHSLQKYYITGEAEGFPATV", "test": "Western blot analysis (Compounds B1-B278)", "type": "cell-based", "conditions": "ER degradation by traditional Western blot; DC50 classes", "method_in_brief": "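Compound-treated cells were lysed in RIPA buffer (Tris.HCl pH 7.6, 1% NP-40, deoxycholate, 0.1% SDS) with protease inhibitors; equal protein was resolved on 10% SDS-PAGE, transferred to PVDF and immunoblotted. Band intensities were quantified and normalized to GAPDH.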", "values": [
      {"compound": "C[C@@H]1Cc2c([nH]c3ccccc23)[C@@H](c2c(F)cc(N3CC(C(=O)N4CC(CN5Cc6cc7c(cc6C5)C(=O)N(C5CCC(=O)NC5=O)C7=O)C4)C3)cc2F)N1CC(F)F", "note": "(stereo partly drawn) [Compound B203, 6-((1-(1-(4-((1R,3R)-2-(2,2-difluoroethyl)-3-methyl-2,3,4,9-tetrahydro-1H-pyrido[3,4-b]indol-1-yl)-3,5-difluorophenyl)azetidine-3-carbonyl)azetidin-3-yl)methyl)-2-(2,6-dioxopiperidin-3-yl)-6,7-dihydropyrrolo[3,4-f]isoindole-1,3(2H,5H)-dione]", "Traditional Western Degradation Potency": "B (“B”: 10-100 nM)"},
      {"compound": "C[C@@H]1Cc2c([nH]c3ccccc23)[C@@H](c2c(F)cc(N3CCC4(CCN(CC5Cc6cc7c(cc6C5)C(=O)N(C5CCC(=O)NC5=O)C7=O)CC4)CC3)cc2F)N1CC(F)(F)F", "note": "(stereo partly drawn) [Compound B204, 6-((9-(3,5-difluoro-4-((1R,3R)-3-methyl-2-(2,2,2-trifluoroethyl)-2,3,4,9-tetrahydro-1H-pyrido[3,4-b]indol-1-yl)phenyl)-3,9-diazaspiro[5.5]undecan-3-yl)methyl)-2-(2,6-dioxopiperidin-3-yl)-6,7-dihydrocyclopenta[f]isoindole-1,3(2H,5H)-dione]", "Traditional Western Degradation Potency": "C (“C”: >100 nM)"},
      {"compound": "C[C@@H]1Cc2c([nH]c3ccccc23)[C@@H](c2c(F)cc(N3CCC4(CC3)CN(CC3Cc5cc6c(cc5C3)C(=O)N(C3CCC(=O)NC3=O)C6=O)C4)cc2F)N1CC(F)F", "note": "(stereo partly drawn) [Compound B205, 6-((7-(4-((1R,3R)-2-(2,2-difluoroethyl)-3-methyl-2,3,4,9-tetrahydro-1H-pyrido[3,4-b]indol-1-yl)-3,5-difluorophenyl)-2,7-diazaspiro[3.5]nonan-2-yl)methyl)-2-(2,6-dioxopiperidin-3-yl)-6,7-dihydrocyclopenta[f]isoindole-1,3(2H,5H)-dione]", "Traditional Western Degradation Potency": "C (“C”: >100 nM)"},
      {"compound": "C[C@@H]1Cc2c([nH]c3ccccc23)[C@@H](c2c(F)cc(N3CCC(C(=O)N4CCC(CN5Cc6cc7c(cc6C5)C(=O)N(C5CCC(=O)NC5=O)C7=O)CC4)CC3)cc2F)N1CC(F)F", "note": "(stereo partly drawn) [Compound B206, 6-((1-(1-(4-((1R,3R)-2-(2,2-difluoroethyl)-3-methyl-2,3,4,9-tetrahydro-1H-pyrido[3,4-b]indol-1-yl)-3,5-difluorophenyl)piperidine-4-carbonyl)piperidin-4-yl)methyl)-2-(2,6-dioxopiperidin-3-yl)-6,7-dihydropyrrolo[3,4-f]isoindole-1,3(2H,5H)-dione]", "Traditional Western Degradation Potency": "C (“C”: >100 nM)"},
      {"compound": "C[C@@H]1Cc2c([nH]c3ccccc23)[C@@H](c2c(F)cc(N3CCC(C(=O)N4CC(CN5Cc6cc7c(cc6C5)C(=O)N(C5CCC(=O)NC5=O)C7=O)C4)CC3)cc2F)N1CC(F)F", "note": "(stereo partly drawn) [Compound B207, 6-((1-(1-(4-((1R,3R)-2-(2,2-difluoroethyl)-3-methyl-2,3,4,9-tetrahydro-1H-pyrido[3,4-b]indol-1-yl)-3,5-difluorophenyl)piperidine-4-carbonyl)azetidin-3-yl)methyl)-2-(2,6-dioxopiperidin-3-yl)-6,7-dihydropyrrolo[3,4-f]isoindole-1,3(2H,5H)-dione]", "Traditional Western Degradation Potency": "B (“B”: 10-100 nM)"},
      {"compound": "C[C@@H]1Cc2c([nH]c3ccccc23)[C@@H](c2c(F)cc(N3CCC(C(=O)N4CC(N5Cc6cc7c(cc6C5)C(=O)N(C5CCC(=O)NC5=O)C7=O)C4)CC3)cc2F)N1CC(F)F", "note": "(stereo partly drawn) [Compound B208, 6-(1-(1-(4-((1R,3R)-2-(2,2-difluoroethyl)-3-methyl-2,3,4,9-tetrahydro-1H-pyrido[3,4-b]indol-1-yl)-3,5-difluorophenyl)piperidine-4-carbonyl)azetidin-3-yl)-2-(2,6-dioxopiperidin-3-yl)-6,7-dihydropyrrolo[3,4-f]isoindole-1,3(2H,5H)-dione]", "Traditional Western Degradation Potency": "C (“C”: >100 nM)"},
      {"compound": "C[C@@H]1Cc2c([nH]c3ccccc23)[C@@H](c2c(F)cc(N3CC(C(=O)N4CCC(N5Cc6cc7c(cc6C5)C(=O)N(C5CCC(=O)NC5=O)C7=O)CC4)C3)cc2F)N1CC(F)F", "note": "(stereo partly drawn) [Compound B209, 6-(1-(1-(4-((1R,3R)-2-(2,2-difluoroethyl)-3-methyl-2,3,4,9-tetrahydro-1H-pyrido[3,4-b]indol-1-yl)-3,5-difluorophenyl)azetidine-3-carbonyl)piperidin-4-yl)-2-(2,6-dioxopiperidin-3-yl)-6,7-dihydropyrrolo[3,4-f]isoindole-1,3(2H,5H)-dione]", "Traditional Western Degradation Potency": "C (“C”: >100 nM)"},
      {"compound": "C[C@@H]1Cc2c([nH]c3ccccc23)[C@@H](c2c(F)cc(N3CC(C(=O)N4CCC(CN5Cc6cc7c(cc6C5)C(=O)N(C5CCC(=O)NC5=O)C7=O)CC4)C3)cc2F)N1CC(F)F", "note": "(stereo partly drawn) [Compound B210, 6-((1-(1-(4-((1R,3R)-2-(2,2-difluoroethyl)-3-methyl-2,3,4,9-tetrahydro-1H-pyrido[3,4-b]indol-1-yl)-3,5-difluorophenyl)azetidine-3-carbonyl)piperidin-4-yl)methyl)-2-(2,6-dioxopiperidin-3-yl)-6,7-dihydropyrrolo[3,4-f]isoindole-1,3(2H,5H)-dione]", "Traditional Western Degradation Potency": "C (“C”: >100 nM)"},
      {"compound": "C[C@@H]1Cc2c([nH]c3ccccc23)[C@@H](c2c(F)cc(N3CCC(CN4CCC(C(=O)N5Cc6cc7c(cc6C5)C(=O)N(C5CCC(=O)NC5=O)C7=O)CC4)CC3)cc2F)N1CC(F)F", "note": "(stereo partly drawn) [Compound B211, 6-(1-((1-(4-((1R,3R)-2-(2,2-difluoroethyl)-3-methyl-2,3,4,9-tetrahydro-1H-pyrido[3,4-b]indol-1-yl)-3,5-difluorophenyl)piperidin-4-yl)methyl)piperidine-4-carbonyl)-2-(2,6-dioxopiperidin-3-yl)-6,7-dihydropyrrolo[3,4-f]isoindole-1,3(2H,5H)-dione]", "Traditional Western Degradation Potency": "C (“C”: >100 nM)"},
      {"compound": "C[C@@H]1Cc2c([nH]c3ccccc23)[C@@H](c2c(F)cc(N3CCC(CN4CC(C(=O)N5Cc6cc7c(cc6C5)C(=O)N(C5CCC(=O)NC5=O)C7=O)C4)CC3)cc2F)N1CC(F)F", "note": "(stereo partly drawn) [Compound B212, 6-(1-((1-(4-((1R,3R)-2-(2,2-difluoroethyl)-3-methyl-2,3,4,9-tetrahydro-1H-pyrido[3,4-b]indol-1-yl)-3,5-difluorophenyl)piperidin-4-yl)methyl)azetidine-3-carbonyl)-2-(2,6-dioxopiperidin-3-yl)-6,7-dihydropyrrolo[3,4-f]isoindole-1,3(2H,5H)-dione]", "Traditional Western Degradation Potency": "C (“C”: >100 nM)"},
      {"compound": "C[C@@H]1Cc2c([nH]c3ccccc23)[C@@H](c2c(F)cc(N3CCC(CN4CCC(N5Cc6cc7c(cc6C5)C(=O)N(C5CCC(=O)NC5=O)C7=O)CC4)CC3)cc2F)N1CC(F)F", "note": "(stereo partly drawn) [Compound B213, 6-(1-((1-(4-((1R,3R)-2-(2,2-difluoroethyl)-3-methyl-2,3,4,9-tetrahydro-1H-pyrido[3,4-b]indol-1-yl)-3,5-difluorophenyl)piperidin-4-yl)methyl)piperidin-4-yl)-2-(2,6-dioxopiperidin-3-yl)-6,7-dihydropyrrolo[3,4-f]isoindole-1,3(2H,5H)-dione]", "Traditional Western Degradation Potency": "A (“A”: <10 nM)"},
      {"compound": "C[C@@H]1Cc2c([nH]c3ccccc23)[C@@H](c2c(F)cc(N3CCC(C(=O)N4CCC(N5Cc6cc7c(cc6C5)C(=O)N(C5CCC(=O)NC5=O)C7=O)CC4)CC3)cc2F)N1CC(C)(F)F", "note": "(stereo partly drawn) [Compound B214, 6-(1-(1-(4-((1R,3R)-2-(2,2-difluoropropyl)-3-methyl-2,3,4,9-tetrahydro-1H-pyrido[3,4-b]indol-1-yl)-3,5-difluorophenyl)piperidine-4-carbonyl)piperidin-4-yl)-2-(2,6-dioxopiperidin-3-yl)-6,7-dihydropyrrolo[3,4-f]isoindole-1,3(2H,5H)-dione]", "Traditional Western Degradation Potency": "A (“A”: <10 nM)"},
      {"compound": "C[C@@H]1Cc2c([nH]c3ccccc23)[C@@H](c2c(F)cc(N3CCC4(CCN(C(=O)CN5Cc6cc7c(cc6C5)C(=O)N(C5CCC(=O)NC5=O)C7=O)CC4)CC3)cc2F)N1CC(C)(F)F", "note": "(stereo partly drawn) [Compound B215, 6-(2-(9-(4-((1R,3R)-2-(2,2-difluoropropyl)-3-methyl-2,3,4,9-tetrahydro-1H-pyrido[3,4-b]indol-1-yl)-3,5-difluorophenyl)-3,9-diazaspiro[5.5]undecan-3-yl)-2-oxoethyl)-2-(2,6-dioxopiperidin-3-yl)-6,7-dihydropyrrolo[3,4-f]isoindole-1,3(2H,5H)-dione]", "Traditional Western Degradation Potency": "A (“A”: <10 nM)"},
      {"compound": "C[C@@H]1Cc2c([nH]c3ccccc23)[C@@H](c2cnc(N3CCC4(CCN(C(=O)CN5Cc6cc7c(cc6C5)C(=O)N(C5CCC(=O)NC5=O)C7=O)CC4)CC3)nc2)N1CC(F)(F)F", "note": "(stereo partly drawn) [Compound B216, 2-(2,6-dioxopiperidin-3-yl)-6-(2-(9-(5-((1R,3R)-3-methyl-2-(2,2,2-trifluoroethyl)-2,3,4,9-tetrahydro-1H-pyrido[3,4-b]indol-1-yl)pyrimidin-2-yl)-3,9-diazaspiro[5.5]undecan-3-yl)-2-oxoethyl)-6,7-dihydropyrrolo[3,4-f]isoindole-1,3(2H,5H)-dione]", "Traditional Western Degradation Potency": "A (“A”: <10 nM)"},
      {"compound": "C[C@@H]1Cc2c([nH]c3ccccc23)[C@@H](c2cnc(N3CCC4(CC3)CN(C(=O)CN3Cc5cc6c(cc5C3)C(=O)N(C3CCC(=O)NC3=O)C6=O)C4)nc2)N1CC(F)(F)F", "note": "(stereo partly drawn) [Compound B217, 2-(2,6-dioxopiperidin-3-yl)-6-(2-(7-(5-((1R,3R)-3-methyl-2-(2,2,2-trifluoroethyl)-2,3,4,9-tetrahydro-1H-pyrido[3,4-b]indol-1-yl)pyrimidin-2-yl)-2,7-diazaspiro[3.5]nonan-2-yl)-2-oxoethyl)-6,7-dihydropyrrolo[3,4-f]isoindole-1,3(2H,5H)-dione]", "Traditional Western Degradation Potency": "A (“A”: <10 nM)"},
      {"compound": "C[C@@H]1Cc2c([nH]c3ccccc23)[C@@H](c2cnc(N3CCC(CN4CCC(N5Cc6cc7c(cc6C5)C(=O)N(C5CCC(=O)NC5=O)C7=O)CC4)CC3)nc2)N1CC(F)(F)F", "note": "(stereo partly drawn) [Compound B218, 2-(2,6-dioxopiperidin-3-yl)-6-(1-((1-(5-((1R,3R)-3-methyl-2-(2,2,2-trifluoroethyl)-2,3,4,9-tetrahydro-1H-pyrido[3,4-b]indol-1-yl)pyrimidin-2-yl)piperidin-4-yl)methyl)piperidin-4-yl)-6,7-dihydropyrrolo[3,4-f]isoindole-1,3(2H,5H)-dione]", "Traditional Western Degradation Potency": "B (“B”: 10-100 nM)"}
    ]}
  ]
}
